Experimental data from patent US20250228239A1, “MOLECULES HAVING PESTICIDAL UTILITY, AND INTERMEDIATES, COMPOSITIONS, AND PROCESSES, RELATED THERETO” (priority 2024, published 2025).
Like-named read-outs stand apart in the source and are kept apart here.

Assays:
[1] = tested on: Beet Armyworm (Spodoptera exigua, LAPHEG); assay: Bioassays on Beet Armyworm (BAW), 128-well diet tray assay; type: in vivo; conditions: Spodoptera exigua
How it was run: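 Larvae at second instar are exposed on dried, compound-treated diet (50 μg/cm^2, delivered in 90:10 acetone-water) in eight replicate wells. After five to seven days at 25° C., 14:10 light-dark, percent mortality in each well is scored and the eight wells averaged.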

[2] = tested on: Cabbage Looper (Trichoplusia ni, TRIPNI); assay: Bioassays on Cabbage Looper (CL), 128-well diet tray assay; type: in vivo; conditions: Trichoplusia ni
How it was run: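 Diet tray, 2nd instar, 1–5 larvae/well; 50 μg/cm^2 compound surface-applied (acetone:water 90:10), dried; 8 wells/treatment; 25° C, 14:10 L:D, 5–7 d; % mortality, mean of 8 wells.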

[3] = Beet Armyworm, rating class, read-out: BAW
[4] = Cabbage Looper, rating class, read-out: CL
[5] = Table ABC: Biological Results, species BAW, read-out: BAW
[6] = Table ABC: Biological Results, species CL, read-out: CL
[7] = Beet Armyworm, Table ABC / ABC-DP rating, read-out: BAW rating
[8] = Cabbage Looper, Table ABC / ABC-DP rating, read-out: CL rating

Compound	pest or weed control at 50 µg/cm2 [1, 5] [%]	pest or weed control at 50 µg/cm2 [2, 6] [%]	pest or weed control at 50 µg/cm2 [1, 7] [%]	pest or weed control at 50 µg/cm2 [2, 8] [%]	other results
O=C(Nc1c(F)ccc(NC(=O)C(F)F)c1F)c1cc(NC(=O)[C@H]2[C@H](c3ccc(F)c(C(F)(F)F)c3)C2(Cl)Cl)cc(F)c1F [F1573, 5-((1R,3R)-2,2-Dichloro-3-(4-fluoro-3-(trifluoromethyl)phenyl)cyclopropane-1-carboxamido)-N-(3-(2,2-difluoroacetamido)-2,6-difluorophenyl)-2,3-difluorobenzamide]	–	–	–	–	pest or weed control at 50 µg/cm2 [1, 3]: 50 to 100%; pest or weed control at 50 µg/cm2 [2, 4]: 50 to 100%
CC(C)(C)C(=O)Nc1c(F)ccc(NC(=O)c2cc(NC(=O)[C@H]3[C@H](c4ccc(F)c(C(F)(F)F)c4)C3(Cl)Cl)ccc2Cl)c1F [F1274, 2-Chloro-5-((1R,3R)-2,2-dichloro-3-(4-fluoro-3-(trifluoromethyl)phenyl)cyclopropane-1-carboxamido)-N-(2,4-difluoro-3-pivalamidophenyl)benzamide]	50 to 100	50 to 100	–	–	–
Cc1c(F)c(N)cc(NC(=O)c2cc(NC(=O)[C@H]3[C@H](c4ccc(F)c(C(F)(F)F)c4)C3(Cl)Cl)ccc2Cl)c1F [F1674, N-(5-Amino-2,4-difluoro-3-methylphenyl)-2-chloro-5-((1R,3R)-2,2-dichloro-3-(4-fluoro-3-(trifluoromethyl)phenyl)cyclopropane-1-carboxamido)benzamide]	–	–	–	–	pest or weed control at 50 µg/cm2 [1, 3]: 50 to 100%; pest or weed control at 50 µg/cm2 [2, 4]: 50 to 100%
O=C(CC(=O)C(F)(F)F)Nc1c(F)ccc(NC(=O)c2cc(NC(=O)[C@H]3[C@H](c4ccc(F)c(C(F)(F)F)c4)C3(Cl)Cl)ccc2Cl)c1F [F1840, 2-Chloro-5-((1R,3R)-2,2-dichloro-3-(4-fluoro-3-(trifluoromethyl)phenyl)cyclopropane-1-carboxamido)-N-(2,4-difluoro-3-(4,4,4-trifluoro-3-oxobutanamido)phenyl)benzamide]	–	–	50 to 100	50 to 100	–
CC(=O)Nc1ccc(F)c(NC(=O)c2cc(NC(=O)[C@H]3[C@H](c4ccc(F)c(C(F)(F)F)c4)C3(Cl)Cl)cc(C)c2Cl)c1F [F1525, N-(3-Acetamido-2,6-difluorophenyl)-2-chloro-5-((1R,3R)-2,2-dichloro-3-(4-fluoro-3-(trifluoromethyl)phenyl)cyclopropane-1-carboxamido)-3-methylbenzamide]	–	–	–	–	pest or weed control at 50 µg/cm2 [1, 3]: 50 to 100%; pest or weed control at 50 µg/cm2 [2, 4]: 50 to 100%
Nc1cc(F)c(NC(=O)c2cc(NC(=O)[C@H]3[C@H](c4cc(Cl)cc(Cl)c4)C3(Cl)Cl)ccc2Cl)c(F)c1 [F1027, N-(4-Amino-2,6-difluorophenyl)-2-chloro-5-((1R,3R)-2,2-dichloro-3-(3,5-dichlorophenyl)cyclopropane-1-carboxamido)benzamide]	50 to 100	50 to 100	–	–	–
O=C(NNC(=S)NCC(F)(F)F)c1cc(NC(=O)[C@H]2[C@H](c3cc(Cl)cc(Cl)c3)C2(Cl)Cl)ccc1Cl (relative stereo) [F2539, trans-2,2-dichloro-N-(4-chloro-3-(2-((2,2,2-trifluoroethyl)carbamothioyl)hydrazine-1-carbonyl)phenyl)-3-(3,5-dichlorophenyl)cyclopropane-1-carboxamide]	–	–	50 to 100	50 to 100	–
O=C(Nc1c(F)ccc(NC(=O)c2cc(NC(=O)[C@H]3[C@H](c4ccc(F)c(C(F)(F)F)c4)C3(Cl)Cl)ccc2Cl)c1F)c1cc(C(F)(F)F)no1 [F1824, N-(3-(2-Chloro-5-((1R,3R)-2,2-dichloro-3-(4-fluoro-3-(trifluoromethyl)phenyl)cyclopropane-1-carboxamido)benzamido)-2,6-difluorophenyl)-3-(trifluoromethyl)isoxazole-5-carboxamide]	–	–	50 to 100	50 to 100	–
Cc1cc(NC(=O)[C@H]2[C@H](c3ccc(Cl)c(Cl)c3)C2(Cl)Cl)cc(C(=O)Nc2ccc(F)c(NC(=O)C(F)F)c2F)c1Cl [F1484, 2-Chloro-5-((1R,3R)-2,2-dichloro-3-(3,4-dichlorophenyl)cyclopropane-1-carboxamido)-N-(3-(2,2-difluoroacetamido)-2,4-difluorophenyl)-3-methylbenzamide]	–	–	–	–	pest or weed control at 50 µg/cm2 [1, 3]: 50 to 100%; pest or weed control at 50 µg/cm2 [2, 4]: 50 to 100%
CC(OC(F)F)C(=O)Nc1c(F)ccc(NC(=O)c2cc(NC(=O)[C@H]3[C@H](c4ccc(F)c(C(F)(F)F)c4)C3(Cl)Cl)ccc2Cl)c1F (stereo partly drawn) [F1828, 2-Chloro-5-((1R,3R)-2,2-dichloro-3-(4-fluoro-3-(trifluoromethyl)phenyl)cyclopropane-1-carboxamido)-N-(3-(2-(difluoromethoxy)propanamido)-2,4-difluorophenyl)benzamide]	–	–	50 to 100	50 to 100	–
CC(CC(F)(F)F)C(=O)Nc1c(F)ccc(NC(=O)c2cc(NC(=O)[C@H]3[C@H](c4ccc(F)c(C(F)(F)F)c4)C3(Cl)Cl)ccc2Cl)c1F (stereo partly drawn) [F1835, 2-Chloro-5-((1R,3R)-2,2-dichloro-3-(4-fluoro-3-(trifluoromethyl)phenyl)cyclopropane-1-carboxamido)-N-(2,4-difluoro-3-(4,4,4-trifluoro-2-methylbutanamido)phenyl)benzamide]	–	–	50 to 100	50 to 100	–
CC(=O)Nc1c(F)ccc(NC(=O)c2cc(NC(=O)[C@H]3[C@H](c4ccc(F)c(C(F)(F)F)c4)C3(Cl)Cl)ccc2Cl)c1F [F1231, N-(3-Acetamido-2,4-difluorophenyl)-2-chloro-5-((1R,3R)-2,2-dichloro-3-(4-fluoro-3-(trifluoromethyl)phenyl)cyclopropane-1-carboxamido)benzamide]	50 to 100	50 to 100	–	–	–
C=CCC(=O)Nc1c(F)ccc(NC(=O)c2cc(NC(=O)[C@H]3[C@H](c4ccc(F)c(Br)c4)C3(Cl)Cl)ccc2Cl)c1F [F1880, 5-((1R,3R)-3-(3-Bromo-4-fluorophenyl)-2,2-dichlorocyclopropane-1-carboxamido)-N-(3-(but-3-enamido)-2,4-difluorophenyl)-2-chlorobenzamide]	–	–	50 to 100	50 to 100	–
COC(=O)c1c(F)ccc(NC(=O)c2cc(NC(=O)[C@H]3[C@H](c4cc(Cl)cc(Cl)c4)C3(Cl)Cl)ccc2Cl)c1F (relative stereo) [F1265, trans-Methyl 3-(2-chloro-5-(2,2-dichloro-3-(3,5-dichlorophenyl)cyclopropane-1-carboxamido)benzamido)-2,6-difluorobenzoate]	50 to 100	50 to 100	–	–	–
Nc1c(Cl)cc(NC(=O)c2cc(NC(=O)[C@H]3[C@H](c4ccc(F)c(Cl)c4)C3(Cl)Cl)ccc2Cl)cc1Cl (relative stereo) [F1367, trans-N-(4-Amino-3,5-dichlorophenyl)-2-chloro-5-(2,2-dichloro-3-(3-chloro-4-fluorophenyl)cyclopropane-1-carboxamido)benzamide]	50 to 100	50 to 100	–	–	–
CC(=O)Nc1cc(NC(=O)c2cc(NC(=O)[C@H]3[C@H](c4ccc(Cl)c(Cl)c4)C3(Cl)Cl)cc(F)c2F)c(F)cc1F [F1585, N-(5-Acetamido-2,4-difluorophenyl)-5-((1R,3R)-2,2-dichloro-3-(3,4-dichlorophenyl)cyclopropane-1-carboxamido)-2,3-difluorobenzamide]	–	–	–	–	pest or weed control at 50 µg/cm2 [1, 3]: 50 to 100%; pest or weed control at 50 µg/cm2 [2, 4]: 50 to 100%
COc1c(F)cc(NC(=O)[C@H]2[C@H](c3ccc(F)c(Cl)c3)C2(Cl)Cl)cc1C(=O)Nc1ccc(F)c(N)c1F (relative stereo) [F1226, trans-N-(3-Amino-2,4-difluorophenyl)-5-(2,2-dichloro-3-(3-chloro-4-fluoro-phenyl)cyclopropane-1-carboxamido)-3-fluoro-2-methoxybenzamide]	50 to 100	50 to 100	–	–	–
O=C(Nc1ccc(F)cc1)c1cc(NC(=O)[C@H]2[C@H](c3cc(Cl)cc(Cl)c3)C2(Cl)Cl)ccc1F (single isomer, unassigned) [F1374]	50 to 100	50 to 100	–	–	–
O=C(COCC(F)(F)F)Nc1c(F)ccc(NC(=O)c2cc(NC(=O)[C@H]3[C@H](c4ccc(Cl)c(Cl)c4)C3(Cl)Cl)ccc2Cl)c1F [F1863, 2-Chloro-5-((1R,3R)-2,2-dichloro-3-(3,4-dichlorophenyl)cyclopropane-1-carboxamido)-N-(2,4-difluoro-3-(2-(2,2,2-trifluoroethoxy)acetamido)phenyl) benzamide]	–	–	50 to 100	50 to 100	–
O=C(Nc1ccc(F)c(O)c1F)c1cc(NC(=O)[C@H]2[C@H](c3cc(Cl)cc(Cl)c3)C2(Cl)Cl)ccc1Cl (relative stereo) [F1203, trans-2-chloro-5-(2,2-dichloro-3-(3,5-dichlorophenyl)cyclopropane-1-carboxamido)-N-(2,4-difluoro-3-hydroxyphenyl)benzamide]	0 to 50	50 to 100	–	–	–
Nc1c(F)ccc(NC(=O)c2cc(NC(=O)[C@H]3[C@H](c4ccc(Cl)c(Cl)c4)C3(Cl)Cl)ccc2F)c1F [F1459, N-(3-Amino-2,4-difluorophenyl)-5-((1R,3R)-2,2-dichloro-3-(3,4-dichlorophenyl)cyclopropane-1-carboxamido)-2-fluorobenzamide]	–	–	–	–	pest or weed control at 50 µg/cm2 [1, 3]: 50 to 100%; pest or weed control at 50 µg/cm2 [2, 4]: 50 to 100%
O=C(NCCCCl)c1c(Cl)ccc(NC(=O)[C@H]2[C@H](c3ccc(F)c(Cl)c3)C2(Cl)Cl)c1F [F2074, 6-Chloro-N-(3-chloropropyl)-3-((1R,3R)-2,2-dichloro-3-(3-chloro-4-fluorophenyl)cyclopropane-1-carboxamido)-2-fluorobenzamide]	–	–	50 to 100	50 to 100	–
